Measurements published in patent US20130090476A1, “Thiazolylpiperidine Derivatives as Fungicides” (priority 2009, published 2013).

Assay: logP determination by HPLC (EEC Directive 79/831 Annex V.A8), LC-MS
[1] = * acidic range, pH 2.7, 0.1% aqueous formic acid/acetonitrile
[2] = pH 2.7, log P (pH2.7), pH 2.7, value given in the preparation text
[3] = pH 2.7, logP, * acidic range, pH 2.7, 0.1% aqueous formic acid/acetonitrile

With Cc1cc(C(F)(F)F)nn1CC(=O)N1CCC(c2nc(CSC3=NOC(c4ccccc4)C3)cs2)CC1 (racemic) [Compound I-88] the logP [1] was 3.52*.

Work on Cc1cc(C(F)(F)F)nn1CC(=O)N1CCC(c2nc(CSc3nnnn3-c3ccccc3)cs2)CC1 [Compound I-4, 2-[5-Methyl-3-(trifluoromethyl)-1H-pyrazol-1-yl]-1-[4-(4-{[(1-phenyl-1H-tetrazol-5-yl)sulphanyl]methyl}-1,3-thiazol-2-yl)piperidin-1-yl]ethanone] yielded a chromatographic logP [2] of 3.25, a chromatographic logP [3] of 3.25 and a chromatographic logP (pH 7.8, logP, ** neutral range, pH 7.8, 0.001 molar aqueous ammonium bicarbonate/acetonitrile) of 3.26.

Cc1cc(C(F)(F)F)nn1CC(=O)N1CCC(c2nc(CSc3cccc4cccnc34)cs2)CC1 [Compound I-5, 1-(4-{4-[(Quinolin-8-ylsulphanyl)methyl]-1,3-thiazol-2-yl}piperidin-1-yl)-2-[5-methyl-3-(trifluoromethyl)-1H-pyrazol-1-yl]ethanone] showed a chromatographic logP [2] of 3 and a chromatographic logP [3] of 3.

Compound Cc1cc(C(F)(F)F)nn1CC(=O)N1CCC(c2nc(C[S+]([O-])C3CCCCC3)cs2)CC1 (centres unmarked) [Compound I-11, 1-(4-{4-[(Cyclohexylsulphinyl)methyl]-1,3-thiazol-2-yl}piperidin-1-yl)-2-[5-methyl-3-(trifluoromethyl)-1H-pyrazol-1-yl]ethanone] has a chromatographic logP [2] of 2.55 and a chromatographic logP [3] of 2.55.

Compound Cc1cc(C(F)(F)F)nn1CC(=O)N1CCC(c2nc(C[S+]([O-])c3cccc4cccnc34)cs2)CC1 (centres unmarked) [Compound I-12, 1-(4-{4-[(Quinolin-8-ylsulphinyl)methyl]-1,3-thiazol-2-yl}piperidin-1-yl)-2-[5-methyl-3-(trifluoromethyl)-1H-pyrazol-1-yl]ethanone] has a chromatographic logP [2] of 2.48 and a chromatographic logP [3] of 2.48.

With Cc1cc(C(F)(F)F)nn1CC(=O)N1CCC(c2nc(C[S+]([O-])c3nnnn3-c3ccccc3)cs2)CC1 (centres unmarked) [Compound I-14, 2-[5-Methyl-3-(trifluoromethyl)-1H-pyrazol-1-yl]-1-[4-(4-{[(1-phenyl-1H-tetrazol-5-yl)sulphinyl]methyl}-1,3-thiazol-2-yl)piperidin-1-yl]ethanone] the chromatographic logP [2] was 2.69 and the chromatographic logP [3] was 2.69.

In the case of Cc1ccc(C)c(NC(=O)N2CCC(c3nc(CSC4CCCCC4)cs3)CC2)c1 [Compound I-16], the logP [1] is reported as 4.38*.

In the case of O=C(Cn1nc(C(F)F)cc1C(F)F)N1CCC(c2nc(CSc3ccccc3-c3ccccc3)cs2)CC1 [Compound I-19], the logP [1] is reported as 4.36*.

With Fc1ccc(F)c(NC(=S)N2CCC(c3nc(CSc4nnnn4-c4ccccc4)cs3)CC2)c1 [Compound I-23] the logP [1] was 3.26*.

For COc1ccc(OC)c(NC(=O)N2CCC(c3nc(CSc4nnnn4-c4ccccc4)cs3)CC2)c1 [Compound I-25], the logP [1] was 3.26*.

For O=C(Cn1nc(C(F)(F)F)cc1C(F)(F)F)N1CCC(c2nc(CS(=O)(=O)c3nnnn3-c3ccccc3)cs2)CC1 [Compound I-26], the logP [1] was 3.59*.

With Cc1ccc(C)c(CC(=O)N2CCC(c3nc(CSC45CC6CC(CC(C6)C4)C5)cs3)CC2)c1 [Compound I-27] the logP [1] was 5.99*.

For Cc1ccc(C)c(CC(=O)N2CCC(c3nc(CSc4cccc5ccccc45)cs3)CC2)c1 [Compound I-43], the logP [1] was 4.86*.

In the case of Cc1ccc(C)c(NC(=O)N2CCC(c3nc(CSc4cccc5ccccc45)cs3)CC2)c1 [Compound I-47], the logP [1] is reported as 4.37*.

For S=C(Nc1cc(Cl)ccc1Cl)N1CCC(c2nc(CSc3nnnn3-c3ccccc3)cs2)CC1 [Compound I-52], the logP [1] was 3.77*.

For O=C(Nc1cc(F)ccc1F)N1CCC(c2nc(CSc3nnnn3-c3ccccc3)cs2)CC1 [Compound I-56], the logP [1] was 3.27*.

In the case of O=C(Cn1nc(C(F)F)cc1C(F)F)N1CCC(c2nc(CSC3=NOC(c4ccccc4)C3)cs2)CC1 (centres unmarked) [Compound I-58, 2-[3,5-Bis(difluoromethyl)-1H-pyrazol-1-yl]-1-{4-[4-({[5-phenyl-4,5-dihydro-1,2-oxazol-3-yl]sulphanyl}methyl)-1,3-thiazol-2-yl]piperidin-1-yl}ethanone], the chromatographic logP [2] is reported as 3.4 and the chromatographic logP [3] is reported as 3.4.

With Cc1cc(C(F)(F)F)nn1CC(=O)N1CCC(c2nc(CSc3nccn3-c3ccccc3)cs2)CC1 [Compound I-61] the logP [1] was 2.22*.

For Cc1ccc(F)cc1NC(=O)N1CCC(c2nc(CSc3nnnn3-c3ccccc3)cs2)CC1 [Compound I-63], the logP [1] was 3.2*.

For O=C(Cn1nc(C(F)F)cc1C(F)F)N1CCC(c2nc(CSc3nccn3-c3ccccc3)cs2)CC1 [Compound I-65], the logP [1] was 2.13*.

For Fc1ccc(Br)c(NC(=S)N2CCC(c3nc(CSc4nnnn4-c4ccccc4)cs3)CC2)c1 [Compound I-66], the logP [1] was 3.46*.

In the case of Cc1cc(C(F)(F)F)nn1CC(=O)N1CCC(c2nc(CSc3ccccc3-c3ccccc3)cs2)CC1 [Compound I-69], the logP [1] is reported as 4.49*.

For Cc1noc(C)c1NC(=O)N1CCC(c2nc(CSc3nnnn3-c3ccccc3)cs2)CC1 [Compound I-75], the logP [1] was 2.22*.

With O=C(Nc1cc(C(F)(F)F)ccc1Cl)N1CCC(c2nc(CSc3nnnn3-c3ccccc3)cs2)CC1 [Compound I-76] the logP [1] was 4.2*.

In the case of COc1ccc(Cl)cc1NC(=O)N1CCC(c2nc(CSc3nnnn3-c3ccccc3)cs2)CC1 [Compound I-79], the logP [1] is reported as 3.8*.

For Cc1noc(C)c1NC(=S)N1CCC(c2nc(CSc3nnnn3-c3ccccc3)cs2)CC1 [Compound I-99], the logP [1] was 2.7*.

For ClC1=NOC(c2ccccc2)C1 (centres unmarked) [Compound X-1, 3-Chloro-5-phenyl-4,5-dihydro-1,2-oxazole], the chromatographic logP [2] was 2.36.

CC(C)(C)OC(=O)N1CCC(c2nc(CSc3cccc4ccccc34)cs2)CC1 [IV-1, tert-Butyl 4-{4-[(1-naphthylsulphanyl)methyl]-1,3-thiazol-2-yl}piperidine-1-carboxylate] showed a chromatographic logP [2] of 5.33.

Compound CC(C)(C)OC(=O)N1CCC(c2nc(CSC34CC5CC(CC(C5)C3)C4)cs2)CC1 [IV-2, tert-Butyl 4-(4-{[(3S,5S,7S)-adamantan-1-ylsulphanyl]methyl}-1,3-thiazol-2-yl)piperidine-1-carboxylate] has a chromatographic logP [2] of 6.66.

For CC(C)(C)OC(=O)N1CCC(c2nc(CSC3CCCCC3)cs2)CC1 [IV-3, tert-Butyl 4-{4-[(cyclohexylsulphanyl)methyl]-1,3-thiazol-2-yl}piperidine-1-carboxylate], the chromatographic logP [2] was 5.45.

Compound CC(C)(C)OC(=O)N1CCC(c2nc(CSc3nnnn3-c3ccccc3)cs2)CC1 [IV-4, tert-Butyl 4-(4-{[(1-phenyl-1H-tetrazol-5-yl)sulphanyl]methyl}-1,3-thiazol-2-yl)piperidine-1-carboxylate] has a chromatographic logP [2] of 3.91.

For CC(C)(C)OC(=O)N1CCC(c2nc(CSc3cccc4cccnc34)cs2)CC1 [IV-5, tert-Butyl 4-{4-[(quinolin-8-ylsulphanyl)methyl]-1,3-thiazol-2-yl}piperidine-1-carboxylate], the chromatographic logP [2] was 3.71.

Work on CC(C)(C)OC(=O)N1CCC(c2nc(CSC3=NOC(c4ccccc4)C3)cs2)CC1 (centres unmarked) [IV-6, tert-Butyl 4-[4-({[5-phenyl-4,5-dihydro-1,2-oxazol-3-yl]sulphanyl}methyl)-1,3-thiazol-2-yl]piperidine-1-carboxylate] yielded a chromatographic logP [2] of 4.25.

Compound CC(C)(C)OC(=O)N1CCC(c2nc(CI)cs2)CC1 [VI-1, tert-Butyl 4-[4-(iodomethyl)-1,3-thiazol-2-yl]piperidine-1-carboxylate] has a chromatographic logP [2] of 3.71.
